This note sets out measurements from ChEMBL document CHEMBL5653631, “A Potent and Selective ULK1 Inhibitor Suppresses Autophagy and Sensitizes Cancer Cells to Nutrient Stress” (iScience, 2018).

For assay [1], the target named is Cyclin-dependent kinase 1 (Homo sapiens) (UniProt P06493). Kind of assay: Inhibition of human recombinant CDC2 at 40 nM in presence of ATP by radiometric assay relative to control.
In assay [2] the target is Serine/threonine-protein kinase Nek4 (Homo sapiens) (UniProt P51957). Kind of assay: Inhibition of human recombinant NEK4 at 40 nM related to control ULK1.
Assay [3] concerns the target Homeodomain-interacting protein kinase 2 (Homo sapiens) (UniProt Q9H2X6). Kind of assay: Inhibition of human recombinant HIPK2 at 500 nM in presence of ATP by radiometric assay relative to control.
Assay [4] addresses Ribosomal protein S6 kinase alpha-1 (Homo sapiens) (UniProt Q15418). Briefly: Inhibition of human recombinant RSK1 at 500 nM in presence of ATP by radiometric assay relative to control.
For assay [5], the target named is STE20-like serine/threonine-protein kinase (Homo sapiens) (UniProt Q9H2G2). Kind of assay: Inhibition of human recombinant SLK at 500 nM in presence of ATP by radiometric assay relative to control.
Chain of STE20-like serine/threonine-protein kinase (Homo sapiens) (Q9H2G2 whole entry, looked up): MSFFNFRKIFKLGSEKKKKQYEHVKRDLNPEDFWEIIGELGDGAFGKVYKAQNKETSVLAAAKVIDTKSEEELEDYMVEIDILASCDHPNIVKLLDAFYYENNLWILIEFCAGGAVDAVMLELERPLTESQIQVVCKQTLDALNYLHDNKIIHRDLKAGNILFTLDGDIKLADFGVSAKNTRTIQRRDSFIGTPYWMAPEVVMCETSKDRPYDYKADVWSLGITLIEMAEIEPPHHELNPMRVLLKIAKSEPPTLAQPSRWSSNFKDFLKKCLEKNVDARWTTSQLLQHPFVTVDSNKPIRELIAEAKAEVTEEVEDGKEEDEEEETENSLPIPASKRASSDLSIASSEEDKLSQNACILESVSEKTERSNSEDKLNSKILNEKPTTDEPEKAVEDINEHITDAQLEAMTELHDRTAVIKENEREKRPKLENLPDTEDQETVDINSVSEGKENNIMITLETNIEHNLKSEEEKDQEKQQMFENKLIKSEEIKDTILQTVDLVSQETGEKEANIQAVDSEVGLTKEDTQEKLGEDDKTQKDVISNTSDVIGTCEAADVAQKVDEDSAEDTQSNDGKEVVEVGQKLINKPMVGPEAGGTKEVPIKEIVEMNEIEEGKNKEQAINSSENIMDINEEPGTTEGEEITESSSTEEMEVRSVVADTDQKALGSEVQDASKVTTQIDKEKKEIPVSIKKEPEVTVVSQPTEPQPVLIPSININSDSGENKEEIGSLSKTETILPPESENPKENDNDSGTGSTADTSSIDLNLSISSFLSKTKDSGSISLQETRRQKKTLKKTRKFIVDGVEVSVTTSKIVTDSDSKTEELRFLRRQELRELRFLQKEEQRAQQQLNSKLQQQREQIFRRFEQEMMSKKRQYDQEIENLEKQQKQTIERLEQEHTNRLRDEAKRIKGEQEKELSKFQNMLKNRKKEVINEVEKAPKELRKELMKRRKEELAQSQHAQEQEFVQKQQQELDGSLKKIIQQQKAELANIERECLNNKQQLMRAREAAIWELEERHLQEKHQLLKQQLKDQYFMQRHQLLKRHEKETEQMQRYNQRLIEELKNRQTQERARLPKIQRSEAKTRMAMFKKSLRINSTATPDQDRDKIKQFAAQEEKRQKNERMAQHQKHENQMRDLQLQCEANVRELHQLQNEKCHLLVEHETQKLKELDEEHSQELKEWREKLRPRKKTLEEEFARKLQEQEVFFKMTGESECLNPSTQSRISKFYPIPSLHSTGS
In assay [6] the target is T1, Serine/threonine-protein kinase tousled-like 1 (Homo sapiens) (UniProt Q9UKI8).
T1 sequence (whole entry): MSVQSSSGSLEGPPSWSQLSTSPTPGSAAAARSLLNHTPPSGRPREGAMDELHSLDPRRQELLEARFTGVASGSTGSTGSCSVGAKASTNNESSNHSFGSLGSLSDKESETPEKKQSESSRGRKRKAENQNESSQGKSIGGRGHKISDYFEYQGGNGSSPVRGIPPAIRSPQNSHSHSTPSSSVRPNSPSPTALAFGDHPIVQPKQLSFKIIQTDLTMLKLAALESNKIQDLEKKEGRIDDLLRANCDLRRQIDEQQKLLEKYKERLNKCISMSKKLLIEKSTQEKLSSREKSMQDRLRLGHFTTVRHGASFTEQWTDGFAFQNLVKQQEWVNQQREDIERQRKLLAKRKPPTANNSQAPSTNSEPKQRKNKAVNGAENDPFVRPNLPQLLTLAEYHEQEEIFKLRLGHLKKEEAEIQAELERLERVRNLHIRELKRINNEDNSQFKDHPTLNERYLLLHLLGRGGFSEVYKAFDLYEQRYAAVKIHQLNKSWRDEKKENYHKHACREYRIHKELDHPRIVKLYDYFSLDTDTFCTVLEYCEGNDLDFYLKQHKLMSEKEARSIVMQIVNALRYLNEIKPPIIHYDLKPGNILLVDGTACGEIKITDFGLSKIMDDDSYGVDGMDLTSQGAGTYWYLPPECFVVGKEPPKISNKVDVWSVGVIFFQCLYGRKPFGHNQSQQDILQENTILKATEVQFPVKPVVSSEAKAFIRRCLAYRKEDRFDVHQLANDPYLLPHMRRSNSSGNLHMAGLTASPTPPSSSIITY
Kind of assay: Inhibition of human recombinant TLK1 at 500 nM in presence of ATP by radiometric assay relative to control.

For assay [7], the target named is T2, Eukaryotic elongation factor 2 kinase (Homo sapiens) (UniProt O00418).
T2 sequence (whole entry): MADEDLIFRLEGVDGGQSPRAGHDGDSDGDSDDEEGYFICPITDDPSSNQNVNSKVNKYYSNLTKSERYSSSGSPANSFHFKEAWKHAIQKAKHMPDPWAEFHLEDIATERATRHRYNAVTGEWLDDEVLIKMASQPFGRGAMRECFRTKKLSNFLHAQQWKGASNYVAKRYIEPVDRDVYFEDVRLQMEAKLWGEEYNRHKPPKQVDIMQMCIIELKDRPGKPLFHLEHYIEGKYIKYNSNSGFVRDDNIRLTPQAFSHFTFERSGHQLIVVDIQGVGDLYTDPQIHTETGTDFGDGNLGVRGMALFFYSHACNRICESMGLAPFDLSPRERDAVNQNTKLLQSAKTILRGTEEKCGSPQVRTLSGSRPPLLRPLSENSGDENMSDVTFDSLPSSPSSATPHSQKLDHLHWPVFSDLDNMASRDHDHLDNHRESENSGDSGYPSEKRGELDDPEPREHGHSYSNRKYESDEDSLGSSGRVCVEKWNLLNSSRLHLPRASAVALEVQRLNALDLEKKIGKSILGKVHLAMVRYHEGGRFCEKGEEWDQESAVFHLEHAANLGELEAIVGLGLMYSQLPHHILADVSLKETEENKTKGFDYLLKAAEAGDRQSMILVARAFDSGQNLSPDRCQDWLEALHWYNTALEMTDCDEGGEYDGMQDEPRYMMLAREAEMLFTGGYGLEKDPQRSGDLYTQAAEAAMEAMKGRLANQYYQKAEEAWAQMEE
Kind of assay: Inhibition of human recombinant eEF2K at 500 nM related to control ULK1.

Assay [8] concerns the target T3, Mitogen-activated protein kinase kinase kinase 3 (Homo sapiens) (UniProt Q99759).
T3 sequence (whole entry): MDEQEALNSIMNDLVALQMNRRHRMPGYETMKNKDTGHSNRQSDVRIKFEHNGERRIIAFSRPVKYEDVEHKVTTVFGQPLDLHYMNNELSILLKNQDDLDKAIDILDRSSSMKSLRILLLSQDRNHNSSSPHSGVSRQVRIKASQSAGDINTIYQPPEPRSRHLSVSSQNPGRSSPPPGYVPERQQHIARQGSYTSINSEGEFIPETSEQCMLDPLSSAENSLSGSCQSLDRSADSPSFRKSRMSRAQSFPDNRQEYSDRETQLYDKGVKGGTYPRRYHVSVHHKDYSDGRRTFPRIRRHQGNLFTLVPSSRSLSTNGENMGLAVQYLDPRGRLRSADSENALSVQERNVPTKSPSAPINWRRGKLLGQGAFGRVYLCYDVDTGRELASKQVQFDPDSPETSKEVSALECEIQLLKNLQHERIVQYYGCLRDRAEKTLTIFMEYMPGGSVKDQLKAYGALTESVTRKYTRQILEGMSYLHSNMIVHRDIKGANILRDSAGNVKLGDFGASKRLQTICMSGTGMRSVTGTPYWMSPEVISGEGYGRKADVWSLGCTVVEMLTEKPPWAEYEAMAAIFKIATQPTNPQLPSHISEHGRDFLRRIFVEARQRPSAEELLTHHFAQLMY
Kind of assay: Inhibition of human recombinant MAP3K3 at 500 nM related to control ULK1.

The target in assay [9] is Calcium/calmodulin-dependent protein kinase type 1G (Homo sapiens) (UniProt Q96NX5). Briefly: Inhibition of human recombinant CaMK1g at 15 nM in presence of ATP by radiometric assay relative to control.
Chain of Calcium/calmodulin-dependent protein kinase type 1G (Homo sapiens) (Q96NX5 whole entry): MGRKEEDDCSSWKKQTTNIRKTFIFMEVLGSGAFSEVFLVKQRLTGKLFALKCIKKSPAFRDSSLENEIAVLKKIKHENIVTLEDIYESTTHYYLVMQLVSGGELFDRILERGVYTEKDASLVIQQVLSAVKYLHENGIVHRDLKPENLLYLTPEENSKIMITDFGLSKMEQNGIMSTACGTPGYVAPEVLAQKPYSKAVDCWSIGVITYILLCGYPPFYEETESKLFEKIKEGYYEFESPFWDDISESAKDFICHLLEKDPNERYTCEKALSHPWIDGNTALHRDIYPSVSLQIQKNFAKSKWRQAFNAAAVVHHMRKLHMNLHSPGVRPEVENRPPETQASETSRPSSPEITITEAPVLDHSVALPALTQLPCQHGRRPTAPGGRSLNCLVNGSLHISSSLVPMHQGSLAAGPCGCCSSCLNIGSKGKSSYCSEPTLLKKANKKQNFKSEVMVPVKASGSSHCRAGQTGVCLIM
For assay [10], the target named is TGF-beta receptor type-2 (Homo sapiens) (UniProt P37173). Kind of assay: Inhibition of human recombinant TGFbR2 at 15 nM in presence of ATP by radiometric assay relative to control.
Chain of TGF-beta receptor type-2 (Homo sapiens) (P37173 whole entry): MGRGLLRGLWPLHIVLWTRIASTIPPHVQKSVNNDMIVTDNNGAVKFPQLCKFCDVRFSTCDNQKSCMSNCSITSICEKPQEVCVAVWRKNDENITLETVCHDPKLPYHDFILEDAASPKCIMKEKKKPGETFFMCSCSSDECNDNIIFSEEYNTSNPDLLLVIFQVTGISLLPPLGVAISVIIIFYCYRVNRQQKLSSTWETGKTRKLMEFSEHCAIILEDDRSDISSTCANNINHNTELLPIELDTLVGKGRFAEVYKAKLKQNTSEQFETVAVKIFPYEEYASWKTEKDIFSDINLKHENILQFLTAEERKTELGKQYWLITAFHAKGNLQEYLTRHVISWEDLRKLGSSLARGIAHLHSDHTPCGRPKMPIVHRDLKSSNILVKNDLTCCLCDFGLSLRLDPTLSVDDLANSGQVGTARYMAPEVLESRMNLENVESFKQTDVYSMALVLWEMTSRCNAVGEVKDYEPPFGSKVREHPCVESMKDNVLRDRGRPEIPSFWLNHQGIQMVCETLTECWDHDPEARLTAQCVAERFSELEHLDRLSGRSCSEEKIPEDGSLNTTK

Chain of Cyclin-dependent kinase 1 (Homo sapiens) (P06493 whole entry, looked up): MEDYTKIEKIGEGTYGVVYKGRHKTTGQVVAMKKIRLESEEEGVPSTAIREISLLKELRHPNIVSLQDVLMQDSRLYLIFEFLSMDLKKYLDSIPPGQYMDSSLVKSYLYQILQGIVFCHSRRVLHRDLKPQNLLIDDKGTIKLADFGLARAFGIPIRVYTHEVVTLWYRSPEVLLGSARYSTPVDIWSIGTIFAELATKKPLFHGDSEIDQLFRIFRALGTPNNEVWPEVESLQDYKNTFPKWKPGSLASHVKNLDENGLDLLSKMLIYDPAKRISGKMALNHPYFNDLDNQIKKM
Chain of Homeodomain-interacting protein kinase 2 (Homo sapiens) (Q9H2X6 whole entry, looked up): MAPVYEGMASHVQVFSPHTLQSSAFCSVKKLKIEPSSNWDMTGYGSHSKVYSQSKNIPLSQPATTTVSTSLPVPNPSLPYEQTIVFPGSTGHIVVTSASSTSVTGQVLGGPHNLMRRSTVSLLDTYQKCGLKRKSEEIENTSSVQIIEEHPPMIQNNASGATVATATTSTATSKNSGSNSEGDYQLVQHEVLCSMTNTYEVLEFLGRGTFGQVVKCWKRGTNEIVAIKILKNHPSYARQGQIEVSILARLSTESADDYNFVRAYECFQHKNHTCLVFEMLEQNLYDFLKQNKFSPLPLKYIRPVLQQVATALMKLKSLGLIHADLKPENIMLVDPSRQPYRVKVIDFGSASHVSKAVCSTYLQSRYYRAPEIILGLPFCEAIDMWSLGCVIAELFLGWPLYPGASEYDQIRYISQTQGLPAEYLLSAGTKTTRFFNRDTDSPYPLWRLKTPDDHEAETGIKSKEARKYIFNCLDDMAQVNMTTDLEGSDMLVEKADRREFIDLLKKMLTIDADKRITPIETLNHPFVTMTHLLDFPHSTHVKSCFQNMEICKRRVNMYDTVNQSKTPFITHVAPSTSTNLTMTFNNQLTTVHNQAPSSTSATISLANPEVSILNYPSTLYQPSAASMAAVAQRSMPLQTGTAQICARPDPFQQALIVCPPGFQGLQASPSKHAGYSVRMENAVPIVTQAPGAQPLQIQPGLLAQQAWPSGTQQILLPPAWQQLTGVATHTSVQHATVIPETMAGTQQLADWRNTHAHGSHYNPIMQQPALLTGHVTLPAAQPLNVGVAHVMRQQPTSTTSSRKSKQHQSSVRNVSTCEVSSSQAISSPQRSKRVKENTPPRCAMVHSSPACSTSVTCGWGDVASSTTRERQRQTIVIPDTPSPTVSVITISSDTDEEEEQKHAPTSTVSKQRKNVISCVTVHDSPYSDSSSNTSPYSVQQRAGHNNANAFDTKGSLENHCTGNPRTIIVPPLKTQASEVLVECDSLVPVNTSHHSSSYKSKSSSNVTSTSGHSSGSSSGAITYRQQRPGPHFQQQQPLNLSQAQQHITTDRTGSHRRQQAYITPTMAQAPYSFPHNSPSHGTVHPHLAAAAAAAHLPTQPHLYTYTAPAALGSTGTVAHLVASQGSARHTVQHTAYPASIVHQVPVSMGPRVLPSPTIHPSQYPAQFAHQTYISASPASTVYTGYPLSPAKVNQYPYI
Chain of Ribosomal protein S6 kinase alpha-1 (Homo sapiens) (Q15418 whole entry): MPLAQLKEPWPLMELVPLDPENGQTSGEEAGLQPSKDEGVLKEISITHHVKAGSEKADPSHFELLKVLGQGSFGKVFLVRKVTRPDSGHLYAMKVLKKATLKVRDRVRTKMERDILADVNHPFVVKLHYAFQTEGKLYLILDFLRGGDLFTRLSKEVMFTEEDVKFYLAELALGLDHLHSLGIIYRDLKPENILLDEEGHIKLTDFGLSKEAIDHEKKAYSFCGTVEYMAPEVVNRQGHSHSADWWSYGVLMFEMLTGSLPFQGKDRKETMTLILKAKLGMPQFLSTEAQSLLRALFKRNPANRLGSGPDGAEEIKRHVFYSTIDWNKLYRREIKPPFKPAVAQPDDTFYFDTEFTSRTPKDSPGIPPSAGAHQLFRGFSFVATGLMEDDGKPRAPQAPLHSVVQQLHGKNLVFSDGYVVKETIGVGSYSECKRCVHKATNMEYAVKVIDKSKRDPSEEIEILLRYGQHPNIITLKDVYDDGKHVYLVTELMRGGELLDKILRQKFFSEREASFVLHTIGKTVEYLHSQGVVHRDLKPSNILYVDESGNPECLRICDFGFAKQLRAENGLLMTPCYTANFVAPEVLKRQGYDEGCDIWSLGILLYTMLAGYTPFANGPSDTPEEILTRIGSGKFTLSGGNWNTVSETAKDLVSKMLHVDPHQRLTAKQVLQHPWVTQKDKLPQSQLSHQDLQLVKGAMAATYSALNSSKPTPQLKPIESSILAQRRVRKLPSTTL

On to `O=C(N[C@@H](C1CC1)C(F)(F)F)c1cc(-c2cnn3cc(-c4ccc(F)cc4)cnc23)cs1`, for which the inhibition (in general, the share of the control response that was lost under treatment) in assay [1] was 45%. Further, in assay [2], the fold change (FC) is 0.05.

As for `CNC(=O)c1ccccc1Oc1nc(Nc2cc(OC)c(OC)c(OC)c2)ncc1Br`, the inhibition in assay [3] is 0%; in [4], 19%; in assay [5], 15%; in assay [6], 0%. In addition, the fold change (FC) came out at 0.19 in assay [7] and 0 in [8].

`CC(C)[C@H](NC(=O)c1cc(-c2cnn3cc(-c4ccc(OCCN5CCCCC5)cc4)cnc23)cs1)C(F)(F)F`: the values for the inhibition in assay [9] and in [10] were 0% and 42%, respectively.
